Data reported in PubChem BioAssay AID1259407 (Chemical Carcinogenesis Research Information System (CCRIS), 2018).
Calls of active or inactive are those of the source. The rule behind the calls is not given here.

System: CCRIS mutagenicity, Ames/micronucleus/aberration tests
Test: CCRIS mutagenicity studies
[1] = Test System: CHINESE HAMSTER V-79, Strain/Indicator: V-79 (HPRT)/6-THIOGUANINE, Metabolic Activation: NONE

Question: `C=CC(=C)C` was tested. Which mutagenic call (End Point: IN VIVO CHROMOSOMAL ABERRATIONS, Test System: BONE MARROW CELLS, Species: MOUSE, Strain/Sex: B6C3F1/MALE, Route: INHALATION) did it give?
Answer: inactive; negative

Question: What about the mutagenic call (End Point: IN VIVO MICRONUCLEUS, Test System: PERIPHERAL BLOOD LYMPHOCYTES, Species: MOUSE, Strain/Sex: B6C3F1/MALE, Route: INHALATION) of the same compound?
Answer: active; positive

Question: And the mutagenic call (Test System: AMES SALMONELLA TYPHIMURIUM, Strain/Indicator: TA98, Metabolic Activation: HAMSTER, LIVER, S-9, AROCLOR 1254 (10%), Method: PREINCUBATION)?
Answer: inactive; negative

Question: What about the mutagenic call (Test System: AMES SALMONELLA TYPHIMURIUM, Strain/Indicator: TA98, Metabolic Activation: NONE, Method: PREINCUBATION) of the same compound?
Answer: inactive; negative

Question: And the mutagenic call (Test System: AMES SALMONELLA TYPHIMURIUM, Strain/Indicator: TA98, Metabolic Activation: RAT, LIVER, S-9, AROCLOR 1254 (10%), Method: PREINCUBATION)?
Answer: inactive; negative

Question: And the mutagenic call (Test System: AMES SALMONELLA TYPHIMURIUM, Strain/Indicator: TA98, Metabolic Activation: S-9, Method: PREINCUBATION)?
Answer: inactive; negative

Question: What about the mutagenic call (Test System: AMES SALMONELLA TYPHIMURIUM, Strain/Indicator: TA100, Metabolic Activation: HAMSTER, LIVER, S-9, AROCLOR 1254 (10%), Method: PREINCUBATION) of the same compound?
Answer: inactive; negative

Question: And the mutagenic call (Test System: AMES SALMONELLA TYPHIMURIUM, Strain/Indicator: TA100, Metabolic Activation: NONE, Method: PREINCUBATION)?
Answer: inactive; negative

Question: And the mutagenic call (Test System: AMES SALMONELLA TYPHIMURIUM, Strain/Indicator: TA100, Metabolic Activation: RAT, LIVER, S-9, AROCLOR 1254 (10%), Method: PREINCUBATION)?
Answer: inactive; negative

Question: And the mutagenic call (Test System: AMES SALMONELLA TYPHIMURIUM, Strain/Indicator: TA100, Metabolic Activation: S-9, Method: PREINCUBATION)?
Answer: inactive; negative

Question: And the mutagenic call (Test System: AMES SALMONELLA TYPHIMURIUM, Strain/Indicator: TA1535, Metabolic Activation: HAMSTER, LIVER, S-9, AROCLOR 1254 (10%), Method: PREINCUBATION)?
Answer: inactive; negative

Question: What about the mutagenic call (Test System: AMES SALMONELLA TYPHIMURIUM, Strain/Indicator: TA1535, Metabolic Activation: NONE, Method: PREINCUBATION) of the same compound?
Answer: inactive; negative

Question: And the mutagenic call (Test System: AMES SALMONELLA TYPHIMURIUM, Strain/Indicator: TA1535, Metabolic Activation: RAT, LIVER, S-9, AROCLOR 1254 (10%), Method: PREINCUBATION)?
Answer: inactive; negative

Question: And the mutagenic call (Test System: AMES SALMONELLA TYPHIMURIUM, Strain/Indicator: TA1535, Metabolic Activation: S-9, Method: PREINCUBATION)?
Answer: inactive; negative

Question: What about the mutagenic call (Test System: AMES SALMONELLA TYPHIMURIUM, Strain/Indicator: TA1537, Metabolic Activation: HAMSTER, LIVER, S-9, AROCLOR 1254 (10%), Method: PREINCUBATION) of the same compound?
Answer: inactive; negative

Question: What about the mutagenic call (Test System: AMES SALMONELLA TYPHIMURIUM, Strain/Indicator: TA1537, Metabolic Activation: NONE, Method: PREINCUBATION) of the same compound?
Answer: inactive; negative

Question: What about the mutagenic call (Test System: AMES SALMONELLA TYPHIMURIUM, Strain/Indicator: TA1537, Metabolic Activation: RAT, LIVER, S-9, AROCLOR 1254 (10%), Method: PREINCUBATION) of the same compound?
Answer: inactive; negative

Question: And the mutagenic call (Test System: E.COLI, Strain/Indicator: WP2UVRA/PKM101, Metabolic Activation: NONE, Method: PREINCUBATION)?
Answer: inactive; negative

Question: What about the mutagenic call (Test System: E.COLI, Strain/Indicator: WP2UVRA/PKM101, Metabolic Activation: S-9, Method: PREINCUBATION) of the same compound?
Answer: inactive; negative

Question: Which mutagenic call (End Point: AMES SALMONELLA TYPHIMURIUM, Test System: TA98, Metabolic Activation: NONE, Method: STANDARD PLATE) does the source give for `CC1COc2c(N3CCN(C)CC3)c(F)cc3c(=O)c(C(=O)O)cn1c23` (stereo not drawn) here?
Answer: active; positive

Question: What about the mutagenic call (End Point: AMES SALMONELLA TYPHIMURIUM, Test System: TA100, Metabolic Activation: NONE, Method: STANDARD PLATE) of the same compound?
Answer: inactive; negative

Question: What about the mutagenic call (Test System: AMES SALMONELLA TYPHIMURIUM, Strain/Indicator: HISG428, Metabolic Activation: NONE, Method: STANDARD PLATE) of the same compound?
Answer: inactive; negative

Question: And the mutagenic call (Test System: AMES SALMONELLA TYPHIMURIUM, Strain/Indicator: TA92, Metabolic Activation: NONE, Method: STANDARD PLATE)?
Answer: active; positive

Question: And the mutagenic call (Test System: AMES SALMONELLA TYPHIMURIUM, Strain/Indicator: TA102, Metabolic Activation: NONE, Method: STANDARD PLATE)?
Answer: active; positive

Question: And the mutagenic call (Test System: AMES SALMONELLA TYPHIMURIUM, Strain/Indicator: TA103, Metabolic Activation: NONE, Method: STANDARD PLATE)?
Answer: active; positive

Question: What about the mutagenic call (Test System: AMES SALMONELLA TYPHIMURIUM, Strain/Indicator: TA104, Metabolic Activation: NONE, Method: STANDARD PLATE) of the same compound?
Answer: inactive; negative

Question: What about the mutagenic call (Test System: AMES SALMONELLA TYPHIMURIUM, Strain/Indicator: TA2638, Metabolic Activation: NONE, Method: STANDARD PLATE) of the same compound?
Answer: active; positive

Question: And the mutagenic call (Test System: AMES SALMONELLA TYPHIMURIUM, Strain/Indicator: TA2661, Metabolic Activation: NONE, Method: STANDARD PLATE)?
Answer: inactive; negative

Question: And the mutagenic call (Test System: AMES SALMONELLA TYPHIMURIUM, Strain/Indicator: TA2662, Metabolic Activation: NONE, Method: STANDARD PLATE)?
Answer: active; positive

Question: What about the mutagenic call (Test System: AMES SALMONELLA TYPHIMURIUM, Strain/Indicator: TA2678, Metabolic Activation: NONE, Method: STANDARD PLATE) of the same compound?
Answer: inactive; negative

Question: What about the mutagenic call [1] of the same compound?
Answer: inactive; negative

Question: What about the mutagenic call (Test System: MOUSE LYMPHOMA, Strain/Indicator: L5178Y (HPRT)/6-THIOGUANINE, Metabolic Activation: NONE, Method: FLUCTUATION TEST) of the same compound?
Answer: inactive; negative

Question: What about the mutagenic call (Test System: MOUSE LYMPHOMA, Strain/Indicator: L5178Y (TK+/TK-), Metabolic Activation: NONE, Method: FLUCTUATION TEST) of the same compound?
Answer: inactive; negative

Question: Which mutagenic call (Test System: CHINESE HAMSTER V79 CELLS, Strain/Indicator: V79 CELLS (HPRT)/6-THIOGUANINE, Metabolic Activation: NONE, Method: SUSPENSION/PLATE) does the source give for `O=C1OC[C@@H](Cc2cccc(O)c2)[C@@H]1Cc1cccc(O)c1` here?
Answer: inactive; negative

Question: And the mutagenic call [1]?
Answer: inactive; negative

Question: Which mutagenic call (Test System: AMES SALMONELLA TYPHIMURIUM, Strain/Indicator: TA100, Metabolic Activation: NONE, Method: STANDARD PLATE) does the source give for `c1cnc2c(c1)[C@@H]1O[C@H]1C1OC21` (stereo partly drawn) here?
Answer: inactive; negative

Question: What about the mutagenic call (Test System: AMES SALMONELLA TYPHIMURIUM, Strain/Indicator: TA100, Metabolic Activation: RAT, LIVER, S-9, AROCLOR 1254 (10% OR 20%), Method: STANDARD PLATE) of the same compound?
Answer: inactive; negative

Question: Which results are given for `N#CCCC(Br)(C#N)CBr` (stereo not drawn)?
Answer: mutagenic call (End Point: In vivo micronucleus, Test System: Peripheral blood normochromatic erythrocytes, Species: Mouse, Strain/Sex: B6C3F1/Female, Route: Dermal): inactive; negative; mutagenic call (End Point: In vivo micronucleus, Test System: Peripheral blood normochromatic erythrocytes, Species: Mouse, Strain/Sex: B6C3F1/Male, Route: Dermal): inactive; negative; mutagenic call (Test System: Ames Salmonella typhimurium, Strain/Indicator: TA97, Metabolic Activation: Hamster, Liver, S-9, Aroclor 1254 (10 and 30%), Method: Preincubation): inactive; negative; mutagenic call (Test System: Ames Salmonella typhimurium, Strain/Indicator: TA97, Metabolic Activation: None, Method: Preincubation): inactive; negative; mutagenic call (Test System: Ames Salmonella typhimurium, Strain/Indicator: TA97, Metabolic Activation: Rat, Liver, S-9, Aroclor 1254 (10 and 30%), Method: Preincubation): inactive; negative; mutagenic call (Test System: Ames Salmonella typhimurium, Strain/Indicator: TA98, Metabolic Activation: Hamster, Liver, S-9, Aroclor 1254 (10 and 30%), Method: Preincubation): inactive; negative; mutagenic call (Test System: Ames Salmonella typhimurium, Strain/Indicator: TA98, Metabolic Activation: None, Method: Preincubation): inactive; negative; mutagenic call (Test System: Ames Salmonella typhimurium, Strain/Indicator: TA98, Metabolic Activation: Rat, Liver, S-9, Aroclor 1254 (10 and 30%), Method: Preincubation): inactive; negative; mutagenic call (Test System: Ames Salmonella typhimurium, Strain/Indicator: TA100, Metabolic Activation: Hamster, Liver, S-9, Aroclor 1254 (10 and 30%), Method: Preincubation): inactive; negative; mutagenic call (Test System: Ames Salmonella typhimurium, Strain/Indicator: TA100, Metabolic Activation: None, Method: Preincubation): inactive; negative; mutagenic call (Test System: Ames Salmonella typhimurium, Strain/Indicator: TA100, Metabolic Activation: Rat, Liver, S-9, Aroclor 1254 (10 and 30%), Method: Preincubation): inactive; negative; mutagenic call (Test System: Ames Salmonella typhimurium, Strain/Indicator: TA1535, Metabolic Activation: Hamster, Liver, S-9, Aroclor 1254 (10 and 30%), Method: Preincubation): inactive; negative; mutagenic call (Test System: Ames Salmonella typhimurium, Strain/Indicator: TA1535, Metabolic Activation: None, Method: Preincubation): inactive; negative; mutagenic call (Test System: Ames Salmonella typhimurium, Strain/Indicator: TA1535, Metabolic Activation: Rat, Liver, S-9, Aroclor 1254 (10 and 30%), Method: Preincubation): inactive; negative; mutagenic call (Test System: E. coli, Strain/Indicator: WP2 uvrA/pKM101, Metabolic Activation: None, Method: Preincubation): inactive; negative; mutagenic call (Test System: E. coli, Strain/Indicator: WP2 uvrA/pKM101, Metabolic Activation: Rat, Liver, S-9, Aroclor 1254 (10%), Method: Preincubation): inactive; negative
